From ChEMBL document CHEMBL2375284, “Novel hybrids of natural isochroman-4-one bearing N-substituted isopropanolamine as potential antihypertensive candidates” (Bioorg Med Chem, 2013) come the findings set out here.

Data set [1] deals with Rattus norvegicus. Kind of data set: Antihypertensive activity in rat spontaneous hypertensive model assessed as diastolic arterial blood pressure at 20 mg/kg, po measured at 0.5 hrs by tail-cuff method (reference value: 138.7 +/- 9.2 mmHg). The class given is functional, Artery.
The test system of data set [2] is Rattus norvegicus. Kind of data set: Toxicity in rat spontaneous hypertensive model assessed as heart rate at 20 mg/kg, po measured at 1 hr by tail-cuff method (reference value: 403.9 +/- 12.41 bpm). Conditions: in vivo. The class given is organism-based. Also noted: dose 20 mg/kg, route oral.
Data set [3] concerns Rattus norvegicus. Kind of data set: Antihypertensive activity in rat spontaneous hypertensive model assessed as systolic arterial blood pressure at 20 mg/kg, po measured at 2 hrs by tail-cuff method (reference value: 172.6 +/- 17.3 mmHg). It counts as functional, Artery.
Data set [4] concerns Rattus norvegicus. Kind of data set: Antihypertensive activity in rat spontaneous hypertensive model assessed as systolic arterial blood pressure at 20 mg/kg, po measured at 1 hr by tail-cuff method (reference value: 181.2 +/- 16.37 mmHg). It counts as functional, Artery.
Data set [5] deals with Rattus norvegicus. Kind of data set: Toxicity in rat spontaneous hypertensive model assessed as heart rate at 20 mg/kg, po measured at 8 hrs by tail-cuff method (reference value: 397.2 +/- 24.87 bpm). The class given is organism-based. Set-up: dose 20 mg/kg, route oral. Conditions: in vivo.
For data set [6], the system named is Rattus norvegicus. Kind of data set: Toxicity in rat spontaneous hypertensive model assessed as heart rate at 20 mg/kg, po measured at 2 hrs by tail-cuff method (reference value: 399.5 +/- 19.68 bpm). Conditions: in vivo. It counts as organism-based. Also noted: dose 20 mg/kg, route oral.
For data set [7], the system named is Rattus norvegicus. Kind of data set: Antihypertensive activity in rat spontaneous hypertensive model assessed as diastolic arterial blood pressure at 20 mg/kg, po measured at 1 hr by tail-cuff method (reference value: 146.2 +/- 13.19 mmHg). It counts as functional, Artery.
Data set [8] has as its system Rattus norvegicus. Kind of data set: Antihypertensive activity in rat spontaneous hypertensive model assessed as diastolic arterial blood pressure at 20 mg/kg, po measured at 2 hrs by tail-cuff method (reference value: 142.9 +/- 18.07 mmHg). It counts as functional, Artery.
Data set [9] deals with Rattus norvegicus. Kind of data set: Toxicity in rat spontaneous hypertensive model assessed as heart rate at 20 mg/kg, po measured at 0.5 hrs by tail-cuff method (reference value: 406.5 +/- 13.15 bpm). It counts as organism-based. Set-up: dose 20 mg/kg, route oral. Conditions: in vivo.
In data set [10] the test system is Rattus norvegicus. Kind of data set: Antihypertensive activity in rat spontaneous hypertensive model assessed as mean arterial blood pressure at 20 mg/kg, po measured at 1 hr by tail-cuff method (reference value: 158.9 +/- 13.65 mmHg). It counts as functional, Artery.
For data set [11], the system named is Rattus norvegicus. Kind of data set: Antihypertensive activity in rat spontaneous hypertensive model assessed as mean arterial blood pressure at 20 mg/kg, po measured at 6 hrs by tail-cuff method (reference value: 155.8 +/- 7.97 mmHg). It counts as functional, Artery.
In data set [12] the test system is Rattus norvegicus. Kind of data set: Antihypertensive activity in rat spontaneous hypertensive model assessed as systolic arterial blood pressure at 20 mg/kg, po measured at 6 hrs by tail-cuff method (reference value: 176.7 +/- 15.21 mmHg). The class given is functional, Artery.
Data set [13] has as its system Rattus norvegicus. Kind of data set: Toxicity in rat spontaneous hypertensive model assessed as heart rate at 20 mg/kg, po measured at 6 hrs by tail-cuff method (reference value: 405.1 +/- 24 bpm). The class given is organism-based. Set-up: dose 20 mg/kg, route oral. As to conditions: in vivo.
Data set [14] has as its system Rattus norvegicus. Kind of data set: Antihypertensive activity in rat spontaneous hypertensive model assessed as systolic arterial blood pressure at 20 mg/kg, po measured at 0.5 hrs by tail-cuff method (reference value: 178.5 +/- 10.13 mmHg). The class given is functional, Artery.
Data set [15] concerns Rattus norvegicus. Kind of data set: Antihypertensive activity in rat spontaneous hypertensive model assessed as systolic arterial blood pressure at 20 mg/kg, po measured at 4 hrs by tail-cuff method (reference value: 172.9 +/- 10.21 mmHg). The class given is functional, Artery.
Data set [16] deals with Rattus norvegicus. Kind of data set: Antihypertensive activity in rat spontaneous hypertensive model assessed as systolic arterial blood pressure at 20 mg/kg, po measured at 8 hrs by tail-cuff method (reference value: 174 +/- 12.1 mmHg). The class given is functional, Artery.
Data set [17] concerns Rattus norvegicus. Kind of data set: Antihypertensive activity in rat spontaneous hypertensive model assessed as mean arterial blood pressure at 20 mg/kg, po measured at 0.5 hrs by tail-cuff method (reference value: 156.2 +/- 7.21 mmHg). It counts as functional, Artery.
Data set [18] relates to Rattus norvegicus. Kind of data set: Toxicity in rat spontaneous hypertensive model assessed as heart rate at 20 mg/kg, po measured at 4 hrs by tail-cuff method (reference value: 403.1 +/- 15.92 bpm). The class given is organism-based. Set-up: dose 20 mg/kg, route oral. As to conditions: in vivo.
Data set [19] relates to Rattus norvegicus. Kind of data set: Antihypertensive activity in rat spontaneous hypertensive model assessed as mean arterial blood pressure at 20 mg/kg, po measured at 8 hrs by tail-cuff method (reference value: 155.8 +/- 11.54 mmHg). It counts as functional, Artery.
The test system of data set [20] is Rattus norvegicus. Kind of data set: Antihypertensive activity in rat spontaneous hypertensive model assessed as mean arterial blood pressure at 20 mg/kg, po measured at 2 hrs by tail-cuff method (reference value: 157.41 +/- 9.62 mmHg). The class given is functional, Artery.
The subject of data set [21] is Rattus norvegicus. Kind of data set: Antihypertensive activity in rat spontaneous hypertensive model assessed as diastolic arterial blood pressure at 20 mg/kg, po measured at 4 hrs by tail-cuff method (reference value: 141.4 +/- 7.11 mmHg). It counts as functional, Artery.
Data set [22] relates to Rattus norvegicus. Kind of data set: Antihypertensive activity in rat spontaneous hypertensive model assessed as mean arterial blood pressure at 20 mg/kg, po measured at 4 hrs by tail-cuff method (reference value: 154.4 +/- 20.1 mmHg). The class given is functional, Artery.
For data set [23], the system named is Rattus norvegicus. Kind of data set: Antihypertensive activity in rat spontaneous hypertensive model assessed as diastolic arterial blood pressure at 20 mg/kg, po measured at 8 hrs by tail-cuff method (reference value: 135.3 +/- 8.21 mmHg). It counts as functional, Artery.
For data set [24], the system named is Rattus norvegicus. Kind of data set: Antihypertensive activity in rat spontaneous hypertensive model assessed as diastolic arterial blood pressure at 20 mg/kg, po measured at 6 hrs by tail-cuff method (reference value: 141.2 +/- 7.34 mmHg). It counts as functional, Artery.

`CC(C)NCC(O)COc1cccc2ccccc12` (centres undefined) [PROPRANOLOL]: the Activity in the data set on Rattus norvegicus [1] is given as 127.2 mmHg; with Rattus norvegicus [2], 339.9 bpm; in the data set with Rattus norvegicus [3], 160.6 mmHg; with Rattus norvegicus [4] it was 156.8 mmHg; in the data set on Rattus norvegicus [5], 362.3 bpm; with Rattus norvegicus [6], 350.6 bpm. The Activity is given as 105.5 mmHg in the data set with Rattus norvegicus [7]; 94.1 mmHg with Rattus norvegicus [8]; 340 bpm with Rattus norvegicus [9]; 122.6 mmHg in the data set with Rattus norvegicus [10]; 120.9 mmHg in the data set with Rattus norvegicus [11]; 161 mmHg in the data set on Rattus norvegicus [12]. The Activity in the data set with Rattus norvegicus [13] turned out to be 360.1 bpm; with Rattus norvegicus [14], 168.7 mmHg; in the data set on Rattus norvegicus [15], 158.4 mmHg; in the data set on Rattus norvegicus [16], 163.9 mmHg; in the data set with Rattus norvegicus [17], 145 mmHg; with Rattus norvegicus [18], 349.6 bpm. Also, the Activity is on record as 132.6 mmHg in the data set on Rattus norvegicus [19]; 116.8 mmHg in the data set with Rattus norvegicus [20]; 88.3 mmHg in the data set on Rattus norvegicus [21]; 108.3 mmHg with Rattus norvegicus [22]; 116.9 mmHg in the data set with Rattus norvegicus [23]; 100.3 mmHg with Rattus norvegicus [24].
